# From patent US9034848B2, “Phenyl carbamate compounds for use in preventing or treating stroke” (Bio-Pharm Solutions Co., Ltd., priority 2011, dated 2015)
# Tests used:
# Type in all cases: in vivo
# SD rats [1] = assay: Transient middle cerebral artery occlusion (tMCAO) model, TTC-stained infarct area; details: 2 hr occlusion, 24 hr reperfusion; for infraction areas compared with control (neuro-therapeutic): 60 mg/kg i.p. 15 minutes after occlusion; for infraction areas compared with control (neuro-prevention): 60 mg/kg i.p. 15 minutes before occlusion
# Description: 1.1. Neuro-Prevention Study of Transient MCAO (tMCAO) Model
# Male, SD rats weighing 290-300 g were purchased from Nara Bio Tech. (Pyoung-tek, Korea) Animals were maintained with laboratory animal food and water ad libitum in an animal facility with a 12 h light/dark cycle at a controlled temperature (23±2° C.) until used. All animal experiments were carried out in accordance with the Korean Academy of Medical Sciences Guide for Care and Use of Laboratory Animals.
# The rats were anesthetized with isoflurane (Hana-phram., Korea) and anesthesia machine was set to 1.0 L/min N2O (Surgi-Vet, USA). Isoflurane and N2O gas ratio was 3:3 for induction anesthesia, and lower to 2:1 (isoflurane:N2O) to maintain anesthesia. Body temperature was monitored continuously by a rectal thermo meter probe and maintained at 37±0.5° C. by placing the animals on a heating pad (Jung-do B&P, Korea). The MCA (middle cerebral artery) occlusion was induced by the procedure of Longa et al. (1989) with minor modifications. Briefly, surgical nylon suture thread (4-0, Diameter: 0.39 mm, Coating length: 0.56 mm, Doccol suture, USA) with a round tip was advanced from the external carotid artery (ECA) into the lumen of the internal carotid artery (ICA) to occlude the origin of the MCA. The wound was closed, and the animals were allowed to home cage for recover.
# Priority, the infraction areas when the compound of Example 1 was treated at various time points were measured for peak time when is the best efficacy time (see FIG. 1). And then, rats received 60 mg/kg dose of each compound of Examples 1, 65 and 67, intraperitoneally (i.p.) at 15 minutes before MCA occlusion (see FIG. 2, animal numbers of each compound of Examples 1 (n=8), 65 (n=5) and 67 (n=6)). All compounds were dissolved in 30% polyethylene glycol (Compound of Example 1) or 20% (w/v) Tween 80 (Compounds of Examples 65 and 67) once in volume of 4 ul/g bw. Control group (n=33) was identical to those in the MCA occlusion rats except for injection of vehicle (4 ul/g bw of 30% (w/v) polyethylene glycol or 20% (w/v) Tween 80, intraperitoneally (i.p.)). Two hours after MCA occlusion, reperfusion was accomplished by pulling the suture thread back to the bifurcation until the tip cleared the ICA.
# The experimentation was identical performed as described in Experimental Example 1.1, except that each compound examples of 1, 65 and 67 was administered at 15 minutes after MCA occlusion (FIG. 3, animal numbers of each compound of Examples 1 (n=7), 65 (n=6) and 67 (n=5)), to test the therapeutic effect of the compounds. Control group (n=33) was identical to those in the MCA occlusion rats except for injection of vehicle (4 ul/g bw of 30% polyethylene glycol or 20% Tween 80, intraperitoneally (i.p.)).
# After 24 hours of reperfusion, rats were anesthetized with isoflurane (Hana-phram., Korea). The brain was then quickly removed and cut into 2-mm thick coronal block slices in brain matrix. The slices were immersed in a 2% (w/v) solution of 2,3,5-triphenyltetrazolium chloride (TTC) in normal saline at 37° C. for 10 min and then fixed in 10% (v/v) formalin solution at room temperature for overnight. The TTC stained brain slices were photographed using a digital camera (5000D, Nikon, Japan). The size of infarct was calculated with an image analysis system (Image-Pro Plus 4.0, Media Cybernetics, USA) and measurement of infarct area were expressed as the percentage (% control) of infarct area in reference to the compared with ipsilateral hemisphere of control group (see FIGS. 2 and 3).
# Statistical analysis results are presented as the mean±S.E.M. and measures analysis of variance was used for comparison of the results of hemispheric infarct area, obtained from 5˜33 rats in each group. Data were analyzed by either one-way analysis of variance (ANOVA) followed by Tukey's test for multiple comparisons. p values less than 0.05 were considered to be statistically significant (see FIGS. 1 and 4).
# SD rats [2] = assay: Permanent middle cerebral artery occlusion (pMCAO) model, TTC-stained infarct area; details: 60 mg/kg i.p. b.i.d.; for infraction areas compared with control (neuro-therapeutic): 1st inj. 0.25 hr after occlusion, 8 hr interval, occlusion 1, 3, 7 days
# mice = assay: MES test (anti-excitotoxicity activity); details: Mus musculus, po, 4 mice, read-out: MES test(po) Protection %; for responders at 100 mg/kg: injection amount 100 mg/kg
compound,measurement,setting,value
"C[C@H](OC(N)=O)[C@@H](O)c1ccccc1Cl [Compound 1, 1-(2-chlorophenyl)-(S)-1-hydroxypropyl-(S)-2-carbamate]",infraction areas compared with control (neuro-therapeutic),SD rats [1],significantly reduced
same,infraction areas compared with control (neuro-prevention),SD rats [1],significantly reduced
same,infraction areas compared with control (neuro-therapeutic),SD rats [2],significantly reduced
same,"neuro-therapeutic effect, TTC-stained infarction area","SD rats [2]; 1st inj. 1 hr after occlusion, occlusion for 3 days",neuro-therapeutic effect
"CCCC[C@H](OC(N)=O)[C@@H](O)c1ccccc1Cl [Compound 12, 1-(2-chlorophenyl)-(S)-1-hydroxyhexyl-(S)-2-carbamate]",responders at 100 mg/kg,mice,75%
"CCCC[C@@H](OC(N)=O)[C@H](O)c1ccccc1Cl [Compound 13, 1-(2-chlorophenyl)-(R)-1-hydroxyhexyl-(R)-2-carbamate]",responders at 200 mg/kg,mice; injection amount 200 mg/kg,75%
"CCCC[C@H](OC(N)=O)[C@@H](O)c1ccc(Cl)cc1Cl [Compound 43, 1-(2,4-dichlorophenyl)-(S)-1-hydroxyhexyl-(S)-2-carbamate]",responders at 100 mg/kg,mice,25%
"CCCC[C@H](OC(N)=O)[C@@H](O)c1c(Cl)cccc1Cl [Compound 44, 1-(2,6-dichlorophenyl)-(S)-1-hydroxyhexyl-(S)-2-carbamate]",responders at 100 mg/kg,mice,75%
"C[C@H](OC(N)=O)[C@@H](O)c1ccccc1I [Compound 65, 1-(2-iodophenyl)-(S)-1-hydroxypropyl-(S)-2-carbamate]",infraction areas compared with control (neuro-therapeutic),SD rats [1],significantly reduced
same,infraction areas compared with control (neuro-prevention),SD rats [1],significantly reduced
same,infraction areas compared with control (neuro-therapeutic),SD rats [2],neuro-therapeutic effects
same,responders at 50 mg/kg,mice; injection amount 50 mg/kg,100%
"CC[C@H](OC(N)=O)[C@@H](O)c1ccccc1I [Compound 67, 1-(2-iodophenyl)-(S)-1-hydroxybutyl-(S)-2-carbamate]",infraction areas compared with control (neuro-therapeutic),SD rats [1],significantly reduced
same,infraction areas compared with control (neuro-prevention),SD rats [1],significantly reduced
same,infraction areas compared with control (neuro-therapeutic),SD rats [2],neuro-therapeutic effects
same,responders at 100 mg/kg,mice,100%
